One test concerns NCIH460. Description: Anti-cancer screen (MTT), NCIH460. It is filed as cell-based. The following applies: Homo sapiens, NCI-H460, 48 hours with compound, tested at 0.01-100 µM. Summed up:
(§1)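 Seed cells at 5000 per well and let them attach for 24 h; add compound at five final concentrations from 0.01 to 100 µM; incubate 48 h; add MTT for 3 h, dissolve formazan in DMSO and read at 570 nm. GI50, TGI and LC50 follow from percent growth relative to T0 and untreated wells.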

The subject of a further test is HCT116. Description: Anti-cancer screen (MTT), HCT116. It is filed as cell-based. The following applies: Homo sapiens, HCT-116, 48 hours with compound, tested at 0.01-100 µM. Summed up:
as §1

A further test has as its system HDAC. The experiment in a line: HDAC inhibition. It is filed as biochemical. The settings on record: for HDAC Inhibition 1 μM: compound at 1 μM; for HDAC Inhibition 10 μM: compound at 10 μM.
For test [1], the system named is NCIH460, HCT116, MDAMB-231/U 251. Description: Anti-cancer screen, mean GI50 over the cell lines. The settings on record: in µM. It is filed as cell-based. Summed up: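 Growth was scored by MTT absorbance at 570 nm relative to control wells and a pre-treatment T0 reading. Compounds were tested at five final concentrations (0.01–100 µM, triplicate) for 48 h on NCIH460, HCT116 and U251 cells, each plated at 5000 cells/well 24 h before dosing.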

For another test, the system named is MDAMB-231/U 251. Description: Anti-cancer screen (MTT), MDAMB-231/U 251. Type of test: cell-based. The settings on record: for CC50: 48 h, read-out: MDAMB-231/U 251 LC50; for GI50 / IC (TGI): 48 hours with compound, MTT, tested at 0.01-100 µM. Summed up:
as §1

This note sets out measurements from US20100152188A1, “Novel Heterocyclic Compounds” (priority 2005, published 2010).

Consider `CN(O)C(=O)c1ccc(CNC(=O)OCc2c(F)cc(F)cc2F)cc1` [Example 45, 2,4,6-Trifluorobenzyl(4-{[hydroxy(methyl)amino]carbonyl}benzyl)carbamate], for which, in the test with NCIH460, the GI50 (in general, the concentration giving 50% growth inhibition) came out at 90 µM; the IC (TGI) was > 100 µM; the LC50 (usually the concentration lethal to half of the exposed cells or organisms) is > 100 µM. Besides, in the test on HCT116, the GI50 was > 100 µM, the IC (TGI) was > 100 µM and the LC50 (concentration giving 50% net cell kill relative to T0) was > 100 µM. Besides, in the test with HDAC, the “HDAC Inhibition 1 μM” value was determined as 4.28 and the “HDAC Inhibition 10 μM” value is on record as −0.76. In addition, in test [1], the “Mean GI50” value is given as >100. Besides, in the test with MDAMB-231/U 251, the CC50 was > 100 µM, the GI50 came to 2.5 µM and the IC (TGI) worked out at 65 µM.
Regarding `CN(O)C(=O)c1ccc(CNC(=O)OCc2cccs2)cc1` [Example 46, 2-Thienylmethyl(4-{[hydroxy(methyl)amino]carbonyl}benzyl)carbamate], in the test on NCIH460, the GI50 amounted to 70 µM, the IC (TGI) was > 100 µM and the LC50 was > 100 µM. In the test with HCT116, the GI50 is 88 µM, the IC (TGI) is > 100 µM and the LC50 (concentration giving 50% net cell kill relative to T0) was > 100 µM. In the test on HDAC, the “HDAC Inhibition 1 μM” value is −4.01 and the “HDAC Inhibition 10 μM” value is listed as −2.70. The “Mean GI50” value in test [1] is reported as 66. In the test on MDAMB-231/U 251, the CC50 is > 100 µM, the GI50 is 40 µM and the IC (TGI) was determined as 90 µM.
As for `CN(O)C(=O)c1ccc(CNC(=O)OCc2c(F)c(F)c(F)c(F)c2F)cc1` [Example 47, Tentafluorobenzyl(4-{[hydroxy(methyl)amino]carbonyl}benzyl)carbamate], in the test on NCIH460, the GI50 stood at 56 µM, the IC (TGI) is > 100 µM and the LC50 was > 100 µM. In the test with HCT116, the concentration for 50% growth inhibition (GI50) came out at 52 µM, the IC (TGI) is > 100 µM and the LC50 (concentration giving 50% net cell kill relative to T0) was > 100 µM. Moreover, in the test on HDAC, the “HDAC Inhibition 1 μM” value is −5.89 and the “HDAC Inhibition 10 μM” value is reported as −2.12. Further, the “Mean GI50” value in test [1] was 48.33. Besides, in the test with MDAMB-231/U 251, the CC50 was > 100 µM, the GI50 worked out at 37 µM and the IC (TGI) was 74 µM.
In the case of `CON(C)C(=O)c1ccc(CNC(=O)OCc2cccs2)cc1` [Example 48, 2-Thienylmethyl(4-{[methoxy(methyl)amino]carbonyl}benzyl)carbamate], in the test with NCIH460, the GI50 turned out to be 1 µM, the IC (TGI) was found to be 31 µM and the LC50 is > 100 µM. Further, in the test with HCT116, the GI50 worked out at 4.3 µM, the IC (TGI) was 9 µM and the LC50 (concentration giving 50% net cell kill relative to T0) amounted to 65 µM. Further, in the test on HDAC, the “HDAC Inhibition 1 μM” value is reported as 4.8 and the “HDAC Inhibition 10 μM” value came out at 1.9. Besides, the “Mean GI50” value in test [1] was 1.8. Besides, in the test with MDAMB-231/U 251, the CC50 was > 100 µM, the GI50 was 0.03 µM and the IC (TGI) was found to be 57 µM.
Take `O=C(NCc1ccc(C(=O)N2CCN(Cc3ccc4c(c3)OCO4)CC2)cc1)OCc1cccs1` [Example 52, 2-Thienylmethyl(4-{[4-(1,3-benzodioxol-5-ylmethyl)piperazin-1-yl]carbonyl}benzyl)carbamate]: in the test with NCIH460, the GI50 is 0.04 µM, the IC (TGI) turned out to be 0.5 µM and the LC50 was > 100 µM. For the same molecule, in the test on HCT116, the concentration for 50% growth inhibition (GI50) stood at 0.4 µM, the IC (TGI) is 5.8 µM and the LC50 (concentration giving 50% net cell kill relative to T0) is > 100 µM. Moreover, in the test on HDAC, the “HDAC Inhibition 1 μM” value came out at 2.2 and the “HDAC Inhibition 10 μM” value is given as 4.1. Moreover, the “Mean GI50” value in test [1] turned out to be 0.6. In the test with MDAMB-231/U 251, the CC50 was > 100 µM, the GI50 came to 1.3 µM and the IC (TGI) was > 100 µM.
In the case of `COC(CNC(=O)c1ccc(CNC(=O)OCc2cccs2)cc1)OC` [Example 53, 2-Thienylmethyl (4-{[(2,2-dimethoxyethyl)amino]carbonyl}benzyl)carbamate], in the test on NCIH460, the GI50 was 0.02 µM, the IC (TGI) came to 1 µM and the LC50 is > 100 µM. For the same molecule, in the test with HCT116, the GI50 was determined as 0.12 µM, the IC (TGI) worked out at 6.1 µM and the LC50 (concentration giving 50% net cell kill relative to T0) was > 100 µM. In addition, in the test on HDAC, the “HDAC Inhibition 1 μM” value is reported as 4.3 and the “HDAC Inhibition 10 μM” value is given as 1.6. The “Mean GI50” value in test [1] is 2.4. Further, in the test on MDAMB-231/U 251, the CC50 is > 100 µM, the GI50 was determined as 7.1 µM and the IC (TGI) was > 100 µM.
Consider `CCOC(=O)Cc1csc(NC(=O)c2ccc(CNC(=O)OCc3cccs3)cc2)n1` [Example 54, Ethyl{2-[(4-{[(2-thienylmethyloycarbonyl)amino]methyl}benzoyl)amino]-1,3-thiazol-4-yl}acetate], for which, in the test with NCIH460, the GI50 was found to be 0.05 µM, the IC (TGI) was 0.8 µM and the LC50 stood at 91 µM. In the test on HCT116, the GI50 was determined as 3 µM, the IC (TGI) was 9.3 µM and the LC50 (concentration giving 50% net cell kill relative to T0) came to 97 µM. Besides, in the test on HDAC, the “HDAC Inhibition 1 μM” value amounted to 0.6 and the “HDAC Inhibition 10 μM” value came to 8.1. In test [1], the “Mean GI50” value turned out to be 1.1. Moreover, in the test on MDAMB-231/U 251, the CC50 is > 100 µM, the GI50 came to 0.2 µM and the IC (TGI) came to 62 µM.
As for `Nc1cccc(NC(=O)c2ccc(CNC(=O)OCc3cccs3)cc2)c1` [Example 55, 2-Thienylmethyl(4-{[(3-aminophenyl)amino]carbonyl}benzyl)carbamate], in the test on NCIH460, the GI50 was 4 µM, the IC (TGI) is 40 µM and the LC50 was > 100 µM. In the test with HCT116, the GI50 worked out at 18 µM, the IC (TGI) was > 100 µM and the LC50 (concentration giving 50% net cell kill relative to T0) was > 100 µM. In the test with HDAC, the “HDAC Inhibition 1 μM” value was found to be 7.41 and the “HDAC Inhibition 10 μM” value was 26. Besides, the “Mean GI50” value in test [1] is 7. Further, in the test on MDAMB-231/U 251, the CC50 was determined as 45 µM, the GI50 worked out at 0.07 µM and the IC (TGI) was 0.6 µM.
Turning to `O=C(NCc1ccc(C(=O)N2CCN(Cc3ccc4c(c3)OCO4)CC2)cc1)OCc1nccs1` [Example 57, 1,3-Thiazol-2-ylmethyl(4-{[4-(1,3-benzodioxol-5-ylmethyl)piperazin-1-yl]carbonyl}benzyl)carbamate], in the test with NCIH460, the GI50 came out at 0.4 µM, the IC (TGI) is 0.9 µM and the LC50 was > 100 µM. Also, in the test with HCT116, the GI50 is 7 µM, the IC (TGI) was > 100 µM and the LC50 (concentration giving 50% net cell kill relative to T0) was > 100 µM. Further, in the test with HDAC, the “HDAC Inhibition 1 μM” value is listed as −1.94 and the “HDAC Inhibition 10 μM” value is listed as −1. In test [1], the “Mean GI50” value is 2.6. For the same molecule, in the test on MDAMB-231/U 251, the CC50 was > 100 µM, the GI50 was 0.4 µM and the IC (TGI) was 0.9 µM.
For `O=C(NCc1ccc(C(=O)Nc2nnc(C(F)(F)F)s2)cc1)OCc1nc2ccccc2s1` [Example 58, 1,3-Benzothiazol-2-ylmethyl[4-({[5-(trifluoromethyl)-1,3,4-thiadiazol-2-yl]amino}carbonyl)benzyl]carbamate], in the test on NCIH460, the GI50 amounted to 2 µM, the IC (TGI) was found to be 7 µM and the LC50 is > 100 µM. Further, in the test on HCT116, the GI50 was determined as 20 µM, the IC (TGI) was > 100 µM and the LC50 (concentration giving 50% net cell kill relative to T0) was > 100 µM. In addition, in the test on HDAC, the “HDAC Inhibition 1 μM” value came out at 0.4 and the “HDAC Inhibition 10 μM” value is listed as −11.54. The “Mean GI50” value in test [1] amounted to 7.3. Also, in the test with MDAMB-231/U 251, the CC50 was determined as 83 µM, the GI50 worked out at 0.04 µM and the IC (TGI) amounted to 0.8 µM.
`O=C(NCc1ccc(C(=O)Nc2nnc(C(F)(F)F)s2)cc1)OCc1cccs1` [Example 59, 2-Thienylmethyl[4-({[5-(trifluoromethyl)-1,3,4-thiadiazol-2-yl]amino}carbonyl)benzyl]carbamate]: in the test on NCIH460, the GI50 worked out at 53 µM, the IC (TGI) is 95 µM and the LC50 is > 100 µM. Also, in the test with HCT116, the GI50 was > 100 µM, the IC (TGI) is > 100 µM and the LC50 (concentration giving 50% net cell kill relative to T0) is > 100 µM. In the test on HDAC, the “HDAC Inhibition 1 μM” value was determined as 14.41. For the same molecule, the “Mean GI50” value in test [1] is given as 63.5. In the test on MDAMB-231/U 251, the CC50 was > 100 µM, the GI50 was determined as 74 µM and the IC (TGI) was > 100 µM.
Regarding `O=C(NCc1ccc(C(=O)N2CCC(N3CCCCC3)CC2)cc1)OCC1COc2ccccc2O1` (stereo not drawn) [Example 60, 2,3-Dihydro-1,4-benzodioxin-2-ylmethyl[{4-(piperidinopiperidin-1-yl)carbonyl}benzyl]carbamate], in the test on NCIH460, the GI50 came out at 7 µM, the IC (TGI) turned out to be 83 µM and the LC50 is > 100 µM. Moreover, in the test on HCT116, the GI50 was determined as 65 µM, the IC (TGI) was > 100 µM and the LC50 (concentration giving 50% net cell kill relative to T0) is > 100 µM. In the test with HDAC, the “HDAC Inhibition 1 μM” value is listed as 1.4. The “Mean GI50” value in test [1] worked out at 36. In addition, in the test with MDAMB-231/U 251, the CC50 was > 100 µM, the GI50 was > 100 µM and the IC (TGI) was > 100 µM.
For the molecule `O=C(NCc1ccc(C(=O)Nc2nnc(C3CC3)s2)cc1)OCc1c(F)cc(F)cc1F` [Example 63, 2,4,6-Trifluorobenzyl(4-{[(5-cyclopropyl-1,3,4-thiadiazol-2-yl)amino]carbonyl}benzyl)carbamate], in the test on NCIH460, the GI50 turned out to be 0.05 µM, the IC (TGI) was found to be 6 µM and the LC50 was > 100 µM. Moreover, in the test on HCT116, the GI50 is 16 µM, the IC (TGI) was > 100 µM and the LC50 (concentration giving 50% net cell kill relative to T0) was > 100 µM. In addition, the “HDAC Inhibition 10 μM” value in the test with HDAC is given as 0.17. The “Mean GI50” value in test [1] came out at 5.52. In the test with MDAMB-231/U 251, the CC50 was > 100 µM, the GI50 is 0.5 µM and the IC (TGI) was determined as 5 µM.
